Test results as given in publication PMC10167746, “Crystal structure of MbnF: an NADPH-dependent flavin monooxygenase from Methylocystis strain SB2” (Acta Crystallographica. Section F, Structural Biology …, 2023).
Blank lines part the entries; values can stand above or below the molecule they belong to.

Columns and labels:
[1] = target: T1, MbnF (MbnF-His) (Methylocystis sp. SB2, UniProt A0ACD6BAX2); experiment: X-ray crystal structure, […] A; type: binding; settings: co-purified from E. coli, no FAD added; noncovalent; 'in' conformation, all three monomers of the asymmetric unit; crystals pH 6.5, 200 mM NaBr
T1 construct: gene CTY30_04200; full-length, C-terminal His6 tag kept (pET-41a, E. coli BL21(DE3)); monomer in solution (SEC), dimer in crystal

[2] = target: T2, MbnF from Methylocystis sp. strain SB2, C-terminally His6-tagged (Methylocystis sp. strain SB2); experiment: native MS; ESI-MS after a SEC column (ACQUITY UPLC Protein BEH SEC) under neutral pH, isocratic 50 mM ammonium acetate pH 6.6; mixture of 1 mg/ml MbnA, 500 µM MbnF, 250 mM NaCl, 50 mM HEPES pH 7.4; settings: both partners purified
T2 construct: MbnF, Methylocystis sp. strain SB2; Computed mass 59.17 kDa as printed; also called MbnF-His; FAD-dependent oxidoreductase; source: E. coli BL21(DE3), pET-41, purified (HisTrap, Mono Q); not shown: His6, C-terminal, kept
T2 chain: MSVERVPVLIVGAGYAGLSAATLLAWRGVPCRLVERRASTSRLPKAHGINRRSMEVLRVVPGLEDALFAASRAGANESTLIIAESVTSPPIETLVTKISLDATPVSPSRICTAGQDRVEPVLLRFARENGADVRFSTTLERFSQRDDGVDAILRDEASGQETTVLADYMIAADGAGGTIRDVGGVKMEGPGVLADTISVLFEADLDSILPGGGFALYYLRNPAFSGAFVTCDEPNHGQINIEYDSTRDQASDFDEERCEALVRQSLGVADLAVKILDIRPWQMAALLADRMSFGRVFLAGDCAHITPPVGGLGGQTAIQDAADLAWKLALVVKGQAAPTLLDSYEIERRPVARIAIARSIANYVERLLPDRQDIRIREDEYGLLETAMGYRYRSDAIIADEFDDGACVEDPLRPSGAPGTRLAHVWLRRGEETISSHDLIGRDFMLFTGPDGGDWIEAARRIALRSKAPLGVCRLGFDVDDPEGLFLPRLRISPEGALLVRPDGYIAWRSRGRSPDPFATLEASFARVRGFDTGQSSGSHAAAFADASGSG

Molecule: Cc1cc2nc3c(=O)[nH]c(=O)nc-3n(C[C@H](O)[C@H](O)[C@H](O)COP(=O)(O)OP(=O)(O)OC[C@H]3O[C@@H](n4cnc5c(N)ncnc54)[C@H](O)[C@@H]3O)c2cc1C [FAD]
X-ray crystal structure, 2.61 A [1]: All three monomers of the asymmetric unit bound FAD in the same general conformation

binding result [2]: binds
B1: MbnA peptide (methanobactin MB-SB2 precursor peptide) (peptide)
peptide: IRIAKRITLNVIGRASARCASTCAATNG
notes: MbnA, precursor peptide of methanobactin MB-SB2, Methylocystis sp. strain SB2; the natural precursor may have further residues at its N-terminus; also called MB-SB2 peptide precursor; source: synthetic peptide, bought: AnaSpec (~90% pure)
